In the oligonucleotide strings, read from the 5' end, every base follows the letter of its sugar. An asterisk marks phosphorothioate; unmarked linkages are phosphodiester. Other units and linkages are bracketed, terminal groups are in braces. A string of capitals states the bases alone. e = 2'-O-(2-methoxyethyl) (MOE); [5mC] = 5-methylcytosine; d = 2'-deoxy (DNA)
What was measured:
[1] = system: thrombin-antithrombin (TAT) complexes; test: Colitis Study E: TAT levels; format: in vivo, Swiss Webb mice; conditions: for TAT levels: colon, DSS-treated mice, day 7, 40 mpk
Protocol: (§1) Two groups 8 Swiss Webb mice were dosed with 40 mg/kg of ISIS 404071 injected subcutaneously twice a week for 3 weeks. Two control groups of 8 Swiss Webb mice were dosed with PBS subcutaneously twice a week for 3 weeks. Both the ASO treated groups and one of the control groups were then given 4% DSS in distilled water for 7 days ad libitum. One of the ASO and DSS treated groups was also given intravenous injections of 20 μg of recombinant human Factor XI protein (Haematologic Technologies Inc.) for 7 consecutive days, starting the day before DSS treatment. Mice were sacrificed at the end of the study on day 7 after DSS was administered.
Mice with dextran sodium sulfate (DSS)-induced colitis have elevated level of thrombin-antithrombin (TAT) complexes in blood (Anthoni, C. et al., J. Exp. Med. 204: 1595-1601, 2007) and is also observed in patients with ulcerative colitis (Kume, K. et al., Intern Med. 2007. 46: 1323-9). The effect of antisense inhibition of Factor XI on TAT levels in the […] was evaluated (Siemens Healthcare Diagnostics, Deerfield, Ill.) at the end of the study on day 7 after DSS was administered and the results are presented in Table 38.

[2] = Arthritis Study B: liver and spleen weight, ALT, AST; format: in vivo; conditions: collagen-treated DBA/1J mice, 20 mg/kg s.c. twice a week for ten weeks
Protocol: In a group of 20 DBA/1J mice, 20 mg/kg of ISIS 404071 were injected subcutaneously twice a week for ten weeks. In a second group of 20 DBA/1J mice, 20 mg/kg of ISIS 404057 were injected subcutaneously twice a week for ten weeks. In a third control group of 20 DBA/1J mice, 20 mg/kg of ISIS 421208 were injected subcutaneously twice a week for ten weeks. Two control groups of 20 mice each were injected with PBS twice a week for ten weeks.
Mice in all groups were examined daily after day 30 after the first collagen injection for the visual appearance of arthritis in peripheral joints. The results in Table 22 are expressed as percent change compared to the PBS control except for the liver and spleen weight.

[3] = system: IFN-γ, IL-10, IL-12, IL-1β, IL-2, IL-4, IL-5, TNF-α, KC; test: Colitis Study E: cytokine levels in colon (multiplex ELISA); format: in vivo, Swiss Webb mice; conditions: for IFN-γ level in the colon / IL-1β level in the colon / IL-2 level in the colon / IL-4 level in the colon / IL-5 level in the colon / IL-10 level in the colon / IL-12 level in the colon / KC level in the colon / TNF-α level in the colon: DSS-treated mice
Protocol: as §1
The cytokine levels of IFN-γ, IL-10, IL-12, IL-1β, IL-2, IL-4, IL-5, TNF-α, and keratinocyte chemoattractant (KC) were measured in the colon of the mice groups at the end of the study on day 7 after DSS was administered. Colons were homogenized on ice in PBS supplemented with protease inhibitors (Sigma, St. Louis, Mo.) and extracted with rotation at 4° C. for 1 hour. After removal of insoluble material by centrifugation, colon homogenates were used for the cytokine analysis by multiplex ELISA (Mouse TH1/TH2 9-Plex Ultra-Sensitive Kit, Meso Scale Discovery, Gaithersburg, Md.) according to the manufacture's protocol. Cytokine levels in colon extracts were normalized to the protein concentration measured by protein assay kit (BioRad, Hercules, Calif.). The levels of pro-inflammatory cytokines, IFN-γ, IL-1β, IL-10, IL-2, IL-5, TNF-α, and KC were elevated by DSS administration, and were decreased by treatment with ISIS 404071.

Sequence: TGGTAATCCACTTTCAGAGG (eT*eG*eG*eT*eA*dA*dT*d[5mC]*d[5mC]*dA*d[5mC]*dT*dT*dT*d[5mC]*eA*eG*eA*eG*eG) [ISIS 404071, 5-10-5 MOE gapmer targeting murine Factor XI, target start site 869]
- TAT levels (in words) ([1]; Colitis Study E, day 7): decreased
- TAT levels ([1]; no human recombinant FXI): 0.1 ng/mg protein
- TAT levels ([1]; plus human recombinant FXI 20 ug/mouse/day): 0.8 ng/mg protein
- Liver ALT [2]: 56.6
- Liver AST [2]: 86.75
- Liver Weight as a % of Body Weight [2]: 6.089%
- Spleen Weight as a % of Body Weight [2]: 0.759 % of Body Weight
- pro-inflammatory cytokine levels in colon: IFN-γ, IL-1β, IL-10, IL-2, IL-5, TNF-α, KC (in words) ([3]; Colitis Study E, day 7): decreased
- IFN-γ level in the colon ([3]; day 7, no rFXI): 1.10 pg/mg
- IL-1β level in the colon ([3]; day 7, no rFXI): 50 pg/mg
- IL-2 level in the colon ([3]; day 7, no rFXI): 0.11 pg/mg
- IL-4 level in the colon ([3]; day 7, no rFXI): 0.012 pg/mg
- IL-5 level in the colon ([3]; day 7, no rFXI): 0.04 pg/mg
- IL-10 level in the colon ([3]; day 7, no rFXI): 4.7 pg/mg
- IL-12 level in the colon ([3]; day 7, no rFXI): 64 pg/mg
- KC level in the colon ([3]; day 7, no rFXI): 27 pg/mg
- TNF-α level in the colon ([3]; day 7, no rFXI): 0.24 pg/mg
- IFN-γ level in the colon ([3]; day 7, plus rFXI 20 ug/day): 4.51 pg/mg
- IL-1β level in the colon ([3]; day 7, plus rFXI 20 ug/day): 103 pg/mg
- IL-2 level in the colon ([3]; day 7, plus rFXI 20 ug/day): 0.28 pg/mg
- IL-4 level in the colon ([3]; day 7, plus rFXI 20 ug/day): 0.004 pg/mg
- IL-5 level in the colon ([3]; day 7, plus rFXI 20 ug/day): 0.17 pg/mg
- IL-10 level in the colon ([3]; day 7, plus rFXI 20 ug/day): 5.8 pg/mg
- IL-12 level in the colon ([3]; day 7, plus rFXI 20 ug/day): 96 pg/mg
- KC level in the colon ([3]; day 7, plus rFXI 20 ug/day): 62 pg/mg
- TNF-α level in the colon ([3]; day 7, plus rFXI 20 ug/day): 0.91 pg/mg
